Test results: patent US20260265305A1, “POLYPEPTIDE DERIVATIVE FOR ORAL DELIVERY” (Hangzhou Sciwind Biosciences Co., Ltd., priority 2023, published 2026)
Read-outs that look alike come from different tables or passages of the source. Numbered stars: 1 amine (or outer) side, 2 acyl side, 3 side chain; on linkers, the order of the positions; unused ones are H or OH. Square brackets hold non-standard residues; d marks the D form. Peptide text beside a SMILES is read from it. * marks the point of attachment. C20 diacid = O=C(O)CCCCCCCCCCCCCCCCCCC(=O)*; C18 diacid = O=C(O)CCCCCCCCCCCCCCCCC(=O)*; βAsp = O=C(O)[C@H](CC(=O)[*:2])N[*:1]; Trx = NC[C@H]1CC[C@H](C(=O)O)CC1; AEEA = NCCOCCOCC(=O)O; Inp = O=C(O)C1CCNCC1

How the values were obtained:
[1] = target: T1, calcitonin receptor (hCTR) (Homo sapiens, UniProt P30988); test: Calcitonin receptor agonism, CRE-luciferase assay in stably transfected CHO-K1/CALCR/Ga15 cells; format: cell-based; conditions: for Fold change in activity against hCTR: relative to D1 as benchmark
T1 construct: host or cells: CHO-K1/CALCR/Ga15 cells, further stably transfected with a CRE-luciferase plasmid
T1 sequence (P30988 25-474): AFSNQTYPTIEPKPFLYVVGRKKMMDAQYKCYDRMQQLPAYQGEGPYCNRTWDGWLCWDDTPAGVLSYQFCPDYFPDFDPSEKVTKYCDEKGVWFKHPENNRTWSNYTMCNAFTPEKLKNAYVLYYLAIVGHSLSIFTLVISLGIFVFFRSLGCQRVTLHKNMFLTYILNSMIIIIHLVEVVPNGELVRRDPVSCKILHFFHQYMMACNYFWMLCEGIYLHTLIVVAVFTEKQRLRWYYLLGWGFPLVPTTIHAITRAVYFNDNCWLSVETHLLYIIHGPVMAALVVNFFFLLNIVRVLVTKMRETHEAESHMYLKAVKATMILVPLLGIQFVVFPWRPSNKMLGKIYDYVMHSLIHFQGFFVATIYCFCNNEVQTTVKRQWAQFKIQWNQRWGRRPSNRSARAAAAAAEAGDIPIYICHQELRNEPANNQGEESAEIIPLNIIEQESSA
Experimental: Using the standard protocol, CHO-K1/CALCR/Ga15 cells (purchased from GenScript, with the calcitonin receptor constructed already) were transfected with a plasmid containing a luciferase expression cassette driven by multiple copies of cAMP response elements (CREs). The cells were cultured in an F12 medium containing 200 ug/mL Zeocin, 2 ug/mL puromycin, and 100 ug/mL hygromycin to afford a stably transfected calcitonin receptor/CRE-luc cell line.
(§1) To each well of a white 96-well plate was added 50 μL of the tested sample solution at a respective concentration.
The stably transfected calcitonin receptor/CRE-luc CHO cells were resuspended in the growth medium at a certain density, and 50 μL of the cell suspension was added at a density of about 20,000 cells per well to the white 96-well plate containing the tested sample solution. After incubation of 24 hours at 37° C. and 5% CO2, 100 μL of a Luciferase substrate was added to each well, incubated for 3 minutes, and finally was tested for luminescence on SpectraMax L (Molecular Devices) with the software SoftMax Pro 7.0.3 GxP. A standard curve was plotted using the fluorescent intensities for calculation of EC50.

[2] = Heat accelerated stability assay of polypeptide solutions (40° C., pH about 7.4), reversed phase chromatography; format: physicochemical; conditions: 40° C.; for Concentration change on 7 d / Concentration change on 26 d: pH about 7.4, 1 mg/mL; for Concentration change on 7 d / Purity change on 7 d: Day 7; for Concentration change on 26 d / Purity change on 26 d: Day 26; for Purity change on 7 d / Purity change on 26 d: reversed phase chromatography 214 nm; for Purity change on 7 d: purity on 7 d − purity on 0 d; for Purity change on 26 d: purity on 26 d − purity on 0 d
Experimental: A stability test chamber (BINDER GmbH), a 0.01 mg-readability balance (METTLER TOLEDO), a pH meter (METTLER TOLEDO), a biosafety cabinet (ESCO), T2G-II small-sized motor-driven capping machine (Changsha zhongya pharmaceutical equipment co. LTD), a high-speed refrigerated centrifuge (Eppendorf), a sterilizer cabinet (Shinva Medical), Agilent 1260 high-performance liquid chromatographer, and Sepax Bio-C18 4.6*250 mm 3 μm 200 Å reversed phase column were used.
Reagents and consumables included: ultrapure water (18.2 MΩ, self-made), acetonitrile (HPLC grade), trifluoroacetic acid (HPLC grade), sodium dihydrogen phosphate (pharmaceutical grade, Hunan Jiudian Hongyang Pharmaceutical Co., Ltd), hydrochloric acid (pharmaceutical grade, Hunan Er-Kang Pharmaceutical Co., Ltd), sodium hydroxide (Analytical Reagent grade, Hushi®, Sinopharm Chemical Reagent Co., Ltd), vials, rubber stoppers, disposable syringes, and sterile filters.
The lyophilized powder (1 mg/mL) of the polypeptide derivative prepared in accordance with the method of Example 1 was mixed with sodium dihydrogen phosphate (1.42 mg/mL) and dissolved in ultrapure water in the indicated mass-volume ratios. After adjusting pH to about 7.4 with hydrochloric acid/sodium hydroxide, the solution was filtered into a sterilized vial in a clean bench using a 0.22 μm sterile filter. The vial was then capped and placed into the stability test chamber at 40° C. Detections were made on Days 7 (7d) and 26 (26d), and during the assay, changes in the characteristics and properties of the polypeptide were observed and recorded. The sample was then centrifuged for 3 min at 10,000 rpm at 4° C., and the supernatant was transferred to a liquid phase sample vial for detecting the concentration and purity of the polypeptides using liquid phase chromatography described as below, wherein the concentration of the polypeptide=peak area/injection volume/extinction coefficient/60×flow rate, and the purity of the polypeptide=target peak area/total peak area×100%.
Conditions of the reversed phase chromatography Flow rate: 1.0 ml/min; Autosampler temperature: 15° C.; Column temperature: 25° C.; Detection wavelengths: 280 nm and 214 nm; Mobile phase A: 100% H2O+0.05% TFA; Mobile phase B: 100% ACN; and Gradient of elution listed in Table 6: […]

[3] = target: T2, amylin receptor (hAMY3R) (Homo sapiens, UniProt O60896+P30988); test: Amylin receptor agonism testing, CRE-luciferase assay in stably transfected CHO-K1/Ga15/AMY3 cells; format: cell-based; conditions: for Fold change in activity against hAMY3R: relative to D1 as benchmark
T2 construct: host or cells: CHO-K1/Ga15/AMY3 cells, further stably transfected with a CRE-luciferase plasmid
T2 sequence (P30988 25-474): T1 sequence (P30988 25-474)
T2 sequence (O60896 24-148): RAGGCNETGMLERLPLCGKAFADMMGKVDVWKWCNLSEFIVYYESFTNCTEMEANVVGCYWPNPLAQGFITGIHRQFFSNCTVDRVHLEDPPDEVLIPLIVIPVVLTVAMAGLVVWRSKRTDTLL
From the text: The objective of this assay is to test the potency of the polypeptide derivatives in the present application on amylin and calcitonin receptors in vitro using a luciferase assay.
Using the standard protocol for construction of an amylin receptor/CRE-luc cell line, CHO-K1/Ga15/AMY3 cells (purchased from GenScript, with the calcitonin receptor and the receptor activity modifying peptide (RAMP) constructed already) were transfected with a plasmid containing a luciferase expression cassette driven by multiple copies of cAMP response elements (CREs). The cells were cultured in an F12 medium containing 200 ug/mL Zeocin, 2 ug/mL puromycin, 100 ug/mL hygromycin, and 400 ug/mL G418 to afford a stably transfected amylin receptor/CRE-luc cell line.
as §1
The stably transfected amylin receptor/CRE-luc CHO cells were resuspended in the growth medium at a certain density, and 50 μL of the cell suspension was added at a density of about 20,000 cells per well to the white 96-well plate containing the tested sample solution. After incubation of 24 hours at 37° C. and 5% CO2, 100 μL of a Luciferase substrate was added to each well, incubated for 3 minutes, and finally was tested for luminescence on SpectraMax L (Molecular Devices) with the software SoftMax Pro 7.0.3 GxP. A standard curve was plotted using the fluorescent intensities for calculation of EC50.

[4] = incubation of 24 hours, Table 4, read-out: EC50, activity against the calcitonin receptor in cells
[5] = incubation of 24 hours, Table 3, read-out: EC50, activity against the amylin receptor in cells

| Fold change in activity against hCTR [1] | Concentration change on 26 d [2] [%] | Purity change on 7 d [2] | Purity change on 26 d [2] [%] | EC50 ([3]; Table 5 integrated analysis, read-out: hAMY3R EC50) [nM] | Fold change in activity against hAMY3R [3] | EC50 [1, 4] [nM] | EC50 [3, 5] [nM] | EC50 ([1]; Table 5 integrated analysis, read-out: hCTR EC50) [nM] | increase in agonistic activity against the amylin receptor ([3]; compared with M17) [folds] | increase in the ratio of activity against the amylin receptor to agonistic activity against the calcitonin receptor ([3]; relative to the benchmark D1) | Compound | Concentration change on 7 d [2] |
| --- | --- | --- | --- | --- | --- | --- | --- | --- | --- | --- | --- | --- |
| 0.183 | −10.824 | No change | −5.67 | 0.119 | 0.303 |  |  |  |  |  | CC(C)C[C@H](NC(=O)[C@H](CCCNC(=N)N)NC(=O)CNC(=O)[C@H](CC(C)C)NC(=O)[C@@H](NC(=O)[C@H](C)NC(=O)[C@@H](NC(=O)[C@H](CO)NC(=O)[C@H](CC(C)C)NC(=O)[C@H](CCC(N)=O)NC(=O)[C@H](CO)NC(=O)[C@H](C)NC(=O)[C@H]1CC[C@H](CNC(=O)CCCCCCCCCCCCCCCCC(=O)O)CC1)[C@@H](C)O)C(C)C)C(=O)N[C@@H](CO)C(=O)N[C@@H](CC(=O)O)C(=O)N[C@@H](CCC(=O)O)C(=O)N[C@@H](CC(C)C)C(=O)N[C@@H](Cc1c[nH]cn1)C(=O)N[C@@H](CCCNC(=N)N)C(=O)N[C@@H](CC(C)C)C(=O)N[C@@H](CCC(N)=O)C(=O)N[C@@H](CC(=O)O)C(=O)N[C@@H](Cc1ccc(O)cc1)C(=O)N1CCC[C@H]1C(=O)N[C@@H](CCCNC(=N)N)C(=O)N[C@H](C(=O)N[C@@H](CC(=O)O)C(=O)N[C@H](C(=O)NCC(=O)N[C@@H](CO)C(=O)NCC(=O)N[C@@H](CO)C(=O)N1CCC[C@H]1C(N)=O)C(C)C)[C@@H](C)O [M15] ({C18 diacid-Trx}-ASQLSTAVLGRLSDELHRLQDYPRTDVGSGSP-NH2) | No change (concentration change of less than 1% (denoted as “no change”)) |
| 1.211 | −9.840 | 1.01% | −2.93 |  | 2.250 | 0.071 |  |  |  |  | CC(C)C[C@H](NC(=O)[C@H](CCCNC(=N)N)NC(=O)CNC(=O)[C@H](CC(C)C)NC(=O)[C@@H](NC(=O)[C@H](C)NC(=O)[C@@H](NC(=O)[C@H](CO)NC(=O)[C@H](CC(C)C)NC(=O)[C@H](CCC(N)=O)NC(=O)[C@H](CO)NC(=O)[C@H](C)NC(=O)[C@H](CCC(=O)O)NC(=O)CCCCCCCCCCCCCCCCC(=O)O)[C@@H](C)O)C(C)C)C(=O)N[C@@H](CO)C(=O)N[C@@H](CC(=O)O)C(=O)N[C@@H](CCC(=O)O)C(=O)N[C@@H](CC(C)C)C(=O)N[C@@H](Cc1c[nH]cn1)C(=O)N[C@@H](CCCNC(=N)N)C(=O)N[C@@H](CC(C)C)C(=O)N[C@@H](CCC(N)=O)C(=O)N[C@@H](CC(=O)O)C(=O)N[C@@H](Cc1ccc(O)cc1)C(=O)N1CCC[C@H]1C(=O)N[C@@H](CCCNC(=N)N)C(=O)N[C@H](C(=O)N[C@@H](CC(=O)O)C(=O)N[C@H](C(=O)NCC(=O)N[C@@H](CO)C(=O)NCC(=O)N[C@@H](CO)C(=O)N1CCC[C@H]1C(N)=O)C(C)C)[C@@H](C)O [M11] ({C18 diacid}-EASQLSTAVLGRLSDELHRLQDYPRTDVGSGSP-NH2) | −3.472% |
| 1.178 | −8.378 | 1.12% | −1.96 |  | 2.118 | 0.073 |  |  |  |  | CC(C)C[C@H](NC(=O)[C@H](CCCNC(=N)N)NC(=O)CNC(=O)[C@H](CC(C)C)NC(=O)[C@@H](NC(=O)[C@H](C)NC(=O)[C@@H](NC(=O)[C@H](CO)NC(=O)[C@H](CC(C)C)NC(=O)[C@H](CCC(N)=O)NC(=O)[C@H](CO)NC(=O)[C@H](C)NC(=O)C[C@H](NC(=O)CCCCCCCCCCCCCCCCCCC(=O)O)C(=O)O)[C@@H](C)O)C(C)C)C(=O)N[C@@H](CO)C(=O)N[C@@H](CC(=O)O)C(=O)N[C@@H](CCC(=O)O)C(=O)N[C@@H](CC(C)C)C(=O)N[C@@H](Cc1c[nH]cn1)C(=O)N[C@@H](CCCNC(=N)N)C(=O)N[C@@H](CC(C)C)C(=O)N[C@@H](CCC(N)=O)C(=O)N[C@@H](CC(=O)O)C(=O)N[C@@H](Cc1ccc(O)cc1)C(=O)N1CCC[C@H]1C(=O)N[C@@H](CCCNC(=N)N)C(=O)N[C@H](C(=O)N[C@@H](CC(=O)O)C(=O)N[C@H](C(=O)NCC(=O)N[C@@H](CO)C(=O)NCC(=O)N[C@@H](CO)C(=O)N1CCC[C@H]1C(N)=O)C(C)C)[C@@H](C)O [M12] ({C20 diacid-βAsp}-ASQLSTAVLGRLSDELHRLQDYPRTDVGSGSP-NH2) | No change (concentration change of less than 1% (denoted as “no change”)) |
| 1.061 | −3.954 | −1.59% | −7.24 |  | 5.143 | 0.081 | 0.007 |  |  |  | CC(C)C[C@H](NC(=O)[C@H](CCCNC(=N)N)NC(=O)CNC(=O)[C@H](CC(C)C)NC(=O)[C@@H](NC(=O)[C@H](C)NC(=O)[C@@H](NC(=O)[C@H](CO)NC(=O)[C@H](CC(C)C)NC(=O)[C@H](CCC(N)=O)NC(=O)[C@H](CO)NC(=O)[C@H](C)NC(=O)COCCOCCNC(=O)COCCOCCNC(=O)[C@H](CCC(=O)O)NC(=O)CCCCCCCCCCCCCCCCC(=O)O)[C@@H](C)O)C(C)C)C(=O)N[C@@H](CO)C(=O)N[C@@H](CC(=O)O)C(=O)N[C@@H](CCC(=O)O)C(=O)N[C@@H](CC(C)C)C(=O)N[C@@H](Cc1c[nH]cn1)C(=O)N[C@@H](CCCNC(=N)N)C(=O)N[C@@H](CC(C)C)C(=O)N[C@@H](CCC(N)=O)C(=O)N[C@@H](CC(=O)O)C(=O)N[C@@H](Cc1ccc(O)cc1)C(=O)N1CCC[C@H]1C(=O)N[C@@H](CCCNC(=N)N)C(=O)N[C@H](C(=O)N[C@@H](CC(=O)O)C(=O)N[C@H](C(=O)NCC(=O)N[C@@H](CO)C(=O)NCC(=O)N[C@@H](CO)C(=O)N1CCC[C@H]1C(N)=O)C(C)C)[C@@H](C)O [M24] ({C18 diacid}-E[AEEA][AEEA]ASQLSTAVLGRLSDELHRLQDYPRTDVGSGSP-NH2) |  |
| 0.848 | −5.268 | No change | −4.34 |  | 36.000 |  | 0.001 | 0.101 | ~70 | about 42.5 fold | CC(C)C[C@H](NC(=O)[C@H](CCCNC(=N)N)NC(=O)CNC(=O)[C@H](CC(C)C)NC(=O)[C@@H](NC(=O)[C@H](C)NC(=O)[C@@H](NC(=O)[C@H](CO)NC(=O)[C@H](CC(C)C)NC(=O)[C@H](CCC(N)=O)NC(=O)[C@H](CO)NC(=O)[C@H](C)NC(=O)COCCOCCNC(=O)COCCOCCNC(=O)C1CCN(C(=O)CCCCCCCCCCCCCCCCC(=O)O)CC1)[C@@H](C)O)C(C)C)C(=O)N[C@@H](CO)C(=O)N[C@@H](CC(=O)O)C(=O)N[C@@H](CCC(=O)O)C(=O)N[C@@H](CC(C)C)C(=O)N[C@@H](Cc1c[nH]cn1)C(=O)N[C@@H](CCCNC(=N)N)C(=O)N[C@@H](CC(C)C)C(=O)N[C@@H](CCC(N)=O)C(=O)N[C@@H](CC(=O)O)C(=O)N[C@@H](Cc1ccc(O)cc1)C(=O)N1CCC[C@H]1C(=O)N[C@@H](CCCNC(=N)N)C(=O)N[C@H](C(=O)N[C@@H](CC(=O)O)C(=O)N[C@H](C(=O)NCC(=O)N[C@@H](CO)C(=O)NCC(=O)N[C@@H](CO)C(=O)N1CCC[C@H]1C(N)=O)C(C)C)[C@@H](C)O [M30] ({C18 diacid-Inp-AEEA-AEEA}-ASQLSTAVLGRLSDELHRLQDYPRTDVGSGSP-NH2) |  |
